Like-named read-outs stand apart in the source and are kept apart here.
Assays:
[1] = Human plasma protein binding (rapid equilibrium dialysis, Cyprotex); format: in vitro ADME; details: for fraction unbound at 4 h, 5 µM: human, plasma, human plasma
[2] = biological target: T1, IDH2 WT (Homo sapiens, UniProt P48735); experiment: Wild type IDH2 enzyme assay, diaphorase/resazurin coupled
T1 sequence (P48735 40-452): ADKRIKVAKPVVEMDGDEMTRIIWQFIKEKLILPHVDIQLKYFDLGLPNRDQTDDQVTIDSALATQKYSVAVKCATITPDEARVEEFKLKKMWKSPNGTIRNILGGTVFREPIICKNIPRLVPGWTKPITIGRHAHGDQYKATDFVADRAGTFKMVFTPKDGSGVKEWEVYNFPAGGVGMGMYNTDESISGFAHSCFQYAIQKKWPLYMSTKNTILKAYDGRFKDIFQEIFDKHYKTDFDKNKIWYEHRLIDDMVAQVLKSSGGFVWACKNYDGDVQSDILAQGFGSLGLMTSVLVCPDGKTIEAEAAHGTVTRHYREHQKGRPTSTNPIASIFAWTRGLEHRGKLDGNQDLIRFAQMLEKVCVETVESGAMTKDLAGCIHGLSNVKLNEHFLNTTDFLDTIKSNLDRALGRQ

[3] = biological target: P-glycoprotein (P-gp, MDR1, ABCB1) in MDCK cells (Homo sapiens, UniProt P08183); experiment: Bidirectional MDCK-MDR1 permeability assay (Cyprotex); details: with tariquidar (1 µM) or verapamil (100 µM); result in words
Chain of P-glycoprotein (P-gp, MDR1, ABCB1) in MDCK cells (P08183 whole entry): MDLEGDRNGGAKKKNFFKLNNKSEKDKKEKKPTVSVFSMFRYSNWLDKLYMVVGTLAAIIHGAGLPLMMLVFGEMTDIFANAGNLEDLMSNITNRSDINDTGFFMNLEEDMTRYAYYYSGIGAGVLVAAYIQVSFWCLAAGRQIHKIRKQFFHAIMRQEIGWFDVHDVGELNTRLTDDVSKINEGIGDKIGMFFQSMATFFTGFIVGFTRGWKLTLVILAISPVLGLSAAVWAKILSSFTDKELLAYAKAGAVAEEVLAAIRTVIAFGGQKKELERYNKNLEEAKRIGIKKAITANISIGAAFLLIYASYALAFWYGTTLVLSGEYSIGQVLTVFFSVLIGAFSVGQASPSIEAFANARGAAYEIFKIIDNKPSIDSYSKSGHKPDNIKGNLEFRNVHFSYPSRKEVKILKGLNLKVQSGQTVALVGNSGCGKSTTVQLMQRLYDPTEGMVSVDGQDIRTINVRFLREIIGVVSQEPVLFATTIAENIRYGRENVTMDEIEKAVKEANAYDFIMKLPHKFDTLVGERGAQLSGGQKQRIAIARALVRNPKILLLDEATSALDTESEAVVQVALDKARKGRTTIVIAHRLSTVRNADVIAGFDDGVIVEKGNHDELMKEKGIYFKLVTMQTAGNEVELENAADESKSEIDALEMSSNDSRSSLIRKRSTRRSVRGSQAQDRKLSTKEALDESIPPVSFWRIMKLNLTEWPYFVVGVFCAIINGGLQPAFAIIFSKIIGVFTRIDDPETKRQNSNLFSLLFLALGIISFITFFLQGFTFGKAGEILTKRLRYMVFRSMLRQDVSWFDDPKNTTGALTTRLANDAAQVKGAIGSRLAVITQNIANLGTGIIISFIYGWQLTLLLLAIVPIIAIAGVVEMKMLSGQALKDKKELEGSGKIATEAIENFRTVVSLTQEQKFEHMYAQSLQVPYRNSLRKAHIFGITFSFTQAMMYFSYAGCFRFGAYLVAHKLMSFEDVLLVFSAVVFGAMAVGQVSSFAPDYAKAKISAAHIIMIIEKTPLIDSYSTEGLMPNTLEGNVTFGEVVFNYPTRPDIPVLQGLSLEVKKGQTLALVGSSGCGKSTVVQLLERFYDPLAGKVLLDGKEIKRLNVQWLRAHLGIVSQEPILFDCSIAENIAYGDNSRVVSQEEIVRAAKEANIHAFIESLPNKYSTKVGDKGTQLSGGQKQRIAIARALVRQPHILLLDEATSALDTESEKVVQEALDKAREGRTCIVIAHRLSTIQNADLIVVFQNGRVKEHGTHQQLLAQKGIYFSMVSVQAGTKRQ

[4] = tested on: RBE (R132S) 3D cellular spheroids; experiment: 2-HG production, spheroids (3D), RBE; format: cell-based; details: Homo sapiens; 3D spheroid, mass spec
Source text: To evaluate the effect of mIDH1 inhibitors in more relevant models of solid tumors, we adapted a 3-dimensional (3D) multicellular tumor spheroid assay to monitor spheroid formation and 2-HG production. Small molecules can have diminished efficacy in multicellular tumor spheroid models due to limited penetration and the heterogeneous nature of the 3D tumor spheroid[39],[40]. We began by testing the 6 aforementioned cell lines for their ability to form spheroids in ultra-low attachment plates at varying cell concentrations (1000–5000 cells/well). […] Overall, spheroids produced less extracellular 2-HG than cells cultured in monolayer (Fig. 7B).
Using these simple 3D models of solid tumors, we assessed the ability of inhibitors to reduce 2-HG production.
2-HG production: Cells grown as spheroids (3D)
(RBE) cells/well/150 μ L to form spheroids. Of note, we were not able to obtain spheroids using SNU1079 cells. Plates were sealed with gas permeable membranes, centrifuged at 40 rcf for 1 min, and incubated at 37°C, 5% CO2, 90% RH for 96 (HT108 0, U87 and JJ01 2) or 4 8 (RBE) h r. Cells were washed (by remo ving 10 0 μL of exhausted media and re placing it with 100 μL of growth media, twice) and treated with 50 μL of a solution of media containing the indicated compounds. Each compound was tested as an 8-point dilution series ranging from 5 μM to 2.3 nM.
After 96 hr of t reatment, 100 μL of the exhausted media was collected and snap frozen on dry ice. Samples were analyzed by LC -MS for 2- HG concentrations using Rapidfire /Mass Spectrometry (Quintara) ( 4) . Plates were first imaged on the Celigo Imaging Cytometer (Ne xcelom Bioscience) to quantify area of each spheroid. Cell viability was subsequently measured using the CellTiter-Glo assay with some modifications: 50 μL of a solution of CellTiter-Glo reagent containing a final concentration of 0.025 % Trypsin (Thermo Sci entific) was added to each well and plates were shaken at 500 rpm for 30 min before reading.

[5] = Microsomal metabolic stability, human; format: in vitro ADME; details: for half-life at 1 µM: pH 7.4, human liver microsomes
[6] = tested on: RBE (R132S) cells; experiment: 2-HG production, monolayer (2D), mass spectrometry, RBE; format: cell-based; details: Homo sapiens, mass spec; for Emax: read-out: 2D Cellular 2HG Production (Mass Spec) RBE (R132S) % EMax; for EC50: read-out: 2D Cellular 2HG Production (Mass Spec) RBE (R132S) EC50
Description: (Supplementary Table 2). Inhibition of the target was assessed by quantitative measurement of 2-HG levels in extracellular media of monolayer (or 2-dimentional, 2D) cultures following incubation (48 hrs) with inhibitors. […]
treated 96-well plates (Corning) at a density of 8000 cells/well/100 μL . Plates were sealed with gas permeable membranes (Research Products International Corp.) and incubated at 37°C, 5% CO2, 90% RH for 24 hr. Growth media was subsequently aspirated and replaced with 100 μL of a solution of growth media cont aining either vehicle DMSO or indicated mIDH1 inhibitor. Each compound was tested as an 8-point dilution series ranging from 5 μM to 2.3 nM. After 48 hr treatment, 75 μL of the exhausted media was collected and snap frozen on dry ice. Samples were analyzed by LC-MS for 2- HG concentrations using Rapidfire / Mass Spectrometry (Quintara) (4) . Remaining cells were assessed for viability by adding 100 μL of fresh media and 50 μL of CellTiter-Glo reagent (Promega) as per manufacturer instructions. Luminescence was read using a Vi ewLux High-throu ghpu t CCD imager (PerkinElmer) equipped with clear filters.

[7] = High-throughput PAMPA (GIT), pH 7.4; format: in vitro ADME; details: read-out: HT PAMPA Permeability
Source text: In Vitro Physicochemical and Drug Metabolism Studies:
High-Throughput PAMPA assay
The stirring double- sin k PAMPA method patented by pION Inc. (Billeri ca, MA) was employed to determine the permeability of compounds via PAMPA passive diffusion. The PAMPA lipid membrane consisted of an artificial membrane of a proprietary lipid mixture and dodecane (Pion Inc.), optimized to predict gastrointestinal tract (GIT) passive diffusion permeability, was immobilized on a plastic matrix of a 96 well “donor” filter plate placed above a 96 well “a cceptor” plate. A pH 7.4 solution was used in both donor and acceptor wells. The test articles, stocked in 10 mM DMSO solutions, were diluted to 0.05 mM in aqueous buffer (pH 7.4) , and the concentration of DMSO was 0.5% in the final solution. During the 30-min permeation period at room temperature, the test samples in the donor compartment were stirred using the Gutbox te chnology (Pion Inc.) to reduce the unstirred water layer. The test article concentrations in the donor and acceptor compartments were measured using an UV plate reader (Nano Quant, Infinite 200 […]
PRO, Tecan Inc., Männedorf, Switzerland). Permeability calculations were performed using Pion Inc. software and were expressed in units of 10-6 cm/s. […]

[8] = Microsomal metabolic stability, mouse; format: in vitro ADME; details: pH 7.4; mouse liver microsomes
[9] = read-out: Human Plasma Protein Binding % Bound (converted)
[10] = read-out: Human Plasma Protein Binding % Unbound

N#Cc1ccnc(N2C(=O)CC[C@H]2C(=O)N(c2cncc(F)c2)[C@H](C(=O)NC2CC(F)(F)C2)c2ccccc2Cl)c1 [AG-120, Ivosidenib]
unbound fraction in human plasma ([1]; 5 µM): ~ 10 % unbound | fraction unbound at 4 h, 5 µM [1, 9]: 0.088 | fraction unbound at 4 h, 5 µM [1, 10]: 0.0876 | EC50 [2]: > 30000 nM | Emax ([2]; read-out: IDH2 WT % EMax): 24.7 ± 6.7% | basolateral/apical transport imbalance in the presence of P-gp inhibitors [3]: completely reversed | EC50 [4]: 254 nM | Emax [4]: 62.9% | half-life at 1 µM [5]: > 120 min | metabolic stability in hepatic microsomes ([5]; three species (mouse, rat and human), result in words): highest metabolic stability | Emax [6]: 89.1% | EC50 [6]: 220 nM | Papp at 30 min, 0.05 mM [7]: 537 ×10⁻⁶ cm/s | half-life at 1 µM [8]: > 120 min

Cc1ccccc1C(C(=O)NC1CCCCC1)N(C(=O)Cn1ccnc1C)c1cccc(F)c1 (stereo not drawn) [AGI-5198]
fraction unbound at 4 h, 5 µM [1, 9]: 0.033 | fraction unbound at 4 h, 5 µM [1, 10]: 0.0326 | EC50 [2]: > 30000 nM | Emax ([2]; read-out: IDH2 WT % EMax): 25.2 ± 9.5% | EC50 [4]: 1050 nM | Emax [4]: 118% | half-life at 1 µM [5]: 4.2 min | Emax [6]: 69.1% | EC50 [6]: 2000 nM | Papp at 30 min, 0.05 mM [7]: > 1400 ×10⁻⁶ cm/s | half-life at 1 µM [8]: 3.5 min

Cc1ccccc1C(C(=O)NC1CCCCC1)N(C(=O)Cn1cnc2ccccc21)c1cccc(F)c1 (stereo not drawn) [Agios 135]
fraction unbound at 4 h, 5 µM [1, 9]: 0.002 | fraction unbound at 4 h, 5 µM [1, 10]: 0.00167 | EC50 [2]: > 30000 nM | Emax ([2]; read-out: IDH2 WT % EMax): 18 ± 7.1% | EC50 [4]: 451 nM | Emax [4]: 97.4% | half-life at 1 µM [5]: 1.5 min | Emax [6]: 106% | EC50 [6]: 810 nM | Papp at 30 min, 0.05 mM [7]: 787 ×10⁻⁶ cm/s | half-life at 1 µM [8]: 2.9 min

COc1c(C)cc(NC(=O)c2nn(Cc3ccc(F)cc3)c3c2CN(C(=O)c2ccc[nH]2)C[C@]3(C)C(N)=O)cc1C [GSK864]
fraction unbound at 4 h, 5 µM [1, 9]: 0.002 | fraction unbound at 4 h, 5 µM [1, 10]: 0.00206 | EC50 [2]: > 30000 nM | Emax ([2]; read-out: IDH2 WT % EMax): 23.9 ± 2.3% | EC50 [4]: 482 nM | Emax [4]: 95.6% | half-life at 1 µM [5]: 23.6 min | Emax [6]: 102% | EC50 [6]: 532 nM | Papp at 30 min, 0.05 mM [7]: 365 ×10⁻⁶ cm/s | half-life at 1 µM [8]: 12.7 min

Cc1ccccc1[C@@H](C(=O)NC1CCCC1)N(C(=O)Cn1cnc2ccccc21)c1cccc(F)c1 [ML309]
fraction unbound at 4 h, 5 µM [1, 9]: 0.004 | fraction unbound at 4 h, 5 µM [1, 10]: 0.00355 | EC50 [2]: > 30000 nM | Emax ([2]; read-out: IDH2 WT % EMax): 18.8 ± 7.7% | EC50 [4]: 321 nM | Emax [4]: 91.3% | half-life at 1 µM [5]: 1.5 min | Emax [6]: 101% | EC50 [6]: 970 nM | Papp at 30 min, 0.05 mM [7]: > 1700 ×10⁻⁶ cm/s | half-life at 1 µM [8]: 2.7 min

CC(=O)N1CCN(Cc2ccc([C@H](C)Nc3nccc(N4C(=O)OC[C@@H]4C(C)C)n3)cc2)CC1 [Norvartis 556]
fraction unbound at 4 h, 5 µM [1, 9]: 0.144 | fraction unbound at 4 h, 5 µM [1, 10]: 0.144 | Emax ([2]; read-out: IDH2 % EMax): 20.7% | EC50 ([2]; read-out: IDH2 EC50, Biochemical, wild type IDH2): > 30000 nM | EC50 [4]: 546 nM | Emax [4]: 102% | half-life at 1 µM [5]: 7.9 min | Emax [6]: 103% | EC50 [6]: 912 nM | Papp at 30 min, 0.05 mM [7]: 390 ×10⁻⁶ cm/s | half-life at 1 µM [8]: 10.3 min
